Test results published in patent US11298422B2, “Treating tumors with TTFields and an aurora kinase inhibitor” (Novocure Limited, priority 2018, dated 2022).
Read-outs that look alike come from different tables or passages of the source.

Experiments:
[1] = tested on: U87-MG^shp53; test: Overall effect (surviving cells x colonies formed vs. control), U87-MG^shp53; format: cell-based, human; settings: for dosage required to achieve an overall effect of 38%: U87-MG^shp53 (FIG. 1D); for overall effect, Observed TTFields + AZD1152 / overall effect, AZD1152: 72 h; for overall effect, Expected: expected value for the combination; for overall effect, AZD1152: surviving cells x colonies vs. control
Procedure: (§1) The effects of the combined treatment of TTFields and the Aurora B kinase inhibitor AZD1152 was tested in 3 different glioma cell lines: U87-MG, U87-MG^shp53 and U-251. TTFields ([…], 200 kHz) were applied for 72 hours using the Inovitro system. AZD1152 was added to the media in concentrations of up to 100 nmol/L. Cell counts, cell cycle, and clonogenic potential were determined at the end of treatment. Formation of multinuclear cells was determined using microscopic images of cells stained with crystal violet.
(§2) The effects of the combined treatment of TTFields and AZD1152 was tested using the following human glioma cell lines: U87-MG (ATCC), U-251 (ECACC) and U87-mG^shp53 (provided by Dr. Achim Temme). All cells were grown in a humidified incubator supplied with 5% CO2. Cells were maintained in EMEM, supplemented with 10% FBS, 2 mmol/L glutamine, Pen-Strep solution (100 units/ml Penicillin and 0.1 mg/ml Streptomycin), 1 mmol/L sodium pyruvate and 1% NEAA. U87-MG^shp53 cells were maintained under selection with […] geneticin. AZD1152 was obtained from Sigma, Israel.
(§3) TTFields (1.6 V/cm RMS, 200 kHz) were applied for 72 hours using the Inovitro system. At the end of treatment, inhibition of tumor cell growth was analyzed quantitatively based on cell count. Clonogenic survival of U87-MG, U87-MG^shp53 and U-251 was tested by plating triplicates of 300 cells/dish in 6 wells dishes. After 2-3 weeks, cells were stained with crystal violet and the number of clones was quantified. Overall effect was calculated by multiplying the percentage of surviving cells at the end of treatment with the percentage of colonies formed vs. control.

[2] = tested on: U87-MG^shp53; test: Cytotoxicity assay (cell count at end of treatment), U87-MG^shp53; format: cell-based, human; settings: for cytotoxic effect, Observed TTFields + AZD1152 / cytotoxic effect, AZD1152: 72 h; for cytotoxic effect, Observed TTFields + AZD1152: percentage of control; for cytotoxic effect, Expected: expected value for the combination; for cytotoxic effect, AZD1152: number of cells as percentage of control
Procedure: as §1, §2, §3

[3] = tested on: U87-MG; test: Cytotoxicity assay (cell count at end of treatment), U87-MG; format: cell-based, human; settings: for cytotoxic effect, Observed TTFields + AZD1152 / cytotoxic effect, AZD1152: 72 h; for cytotoxic effect, Observed TTFields + AZD1152: percentage of control; for cytotoxic effect, Expected: expected value for the combination; for cytotoxic effect, AZD1152: number of cells as percentage of control
Procedure: as §1, §2, §3

[4] = tested on: U-251; test: Overall effect based on the clonogenic assay, U-251; format: cell-based, human; settings: for overall effect, Observed TTFields + AZD1152 / overall effect, AZD1152: 72 h; for overall effect, Observed TTFields + AZD1152: clonogenic assay; for overall effect, Expected: expected value for the combination; for overall effect, AZD1152: based on the clonogenic assay
Procedure: as §1, §2, §3
The overall effect for U-251 cells was determined based on the clonogenic assay. Response to TTFields application alone led to about 50% reduction in the clonogenic potential of U-251 cells (FIG. 1E).

[5] = tested on: U87-MG; test: Overall effect (surviving cells x colonies formed vs. control), U87-MG; format: cell-based, human; settings: for overall effect, Observed TTFields + AZD1152 / overall effect, AZD1152: 72 h; for overall effect, Expected: expected value for the combination; for overall effect, AZD1152: surviving cells x colonies vs. control
Procedure: as §1, §2, §3

[6] = patients with advanced solid tumors, cited from earlier work
[7] = U87-MG^shp53, AZD1152 25 nM + TTFields 200 kHz 1.6 V/cm RMS
[8] = U87-MG^shp53, AZD1152 25 nM + TTFields
[9] = U87-MG^shp53, AZD1152 25 nM alone
[10] = U87-MG^shp53, AZD1152 50 nM + TTFields 200 kHz 1.6 V/cm RMS
[11] = U87-MG^shp53, AZD1152 50 nM + TTFields
[12] = U87-MG^shp53, AZD1152 50 nM alone
[13] = U87-MG^shp53, AZD1152 100 nM + TTFields 200 kHz 1.6 V/cm RMS
[14] = U87-MG^shp53, AZD1152 100 nM + TTFields
[15] = U87-MG^shp53, AZD1152 100 nM alone

CCN(CCCOc1ccc2c(Nc3cc(CC(=O)Nc4cccc(F)c4)n[nH]3)ncnc2c1)CCOP(=O)(O)O [AZD1152, Barasertib]
dosage required to achieve an overall effect of 38% ([1]; combined with TTFields): 25 nM
dosage required to achieve an overall effect of 38% ([1]; in the absence of TTFields): 70 nM
overall effect, Observed TTFields + AZD1152 [1, 7]: 39.0%
overall effect, Expected [1, 8]: 51.0%
overall effect, AZD1152 [1, 9]: 79%
overall effect, Observed TTFields + AZD1152 [1, 10]: 13.0%
overall effect, Expected [1, 11]: 33.9%
overall effect, AZD1152 [1, 12]: 52.5%
overall effect, Observed TTFields + AZD1152 [1, 13]: 2.5%
overall effect, Expected [1, 14]: 7.1%
overall effect, AZD1152 [1, 15]: 11%
reduction of dosage required for a given level of overall effect when combined with TTFields ([1]; with respect to the dosage giving the same overall effect in the absence of an alternating electric field, 'can often be'): at least 50%
IC50 ([2]; Homo sapiens, U87-MG^shp53, AZD1152 alone, 72 hours): ~50 nM
cytotoxic effect, Observed TTFields + AZD1152 [2, 7]: 22.5%
cytotoxic effect, Expected [2, 8]: 42.2%
cytotoxic effect, AZD1152 [2, 9]: 71%
cytotoxic effect, Observed TTFields + AZD1152 [2, 10]: 10.5%
cytotoxic effect, Expected [2, 11]: 27.7%
cytotoxic effect, AZD1152 [2, 12]: 46.5%
cytotoxic effect, Observed TTFields + AZD1152 [2, 13]: 4.5%
cytotoxic effect, Expected [2, 14]: 8.9%
cytotoxic effect, AZD1152 [2, 15]: 15%
cytotoxic effect of combined treatment of TTFields and AZD1152 ([2]; U87-MG^shp53, 2-way ANOVA, p<0.001): significant enhancement of the cytotoxic effect
cytotoxic effect, Observed TTFields + AZD1152 ([3]; AZD1152 25 nM + TTFields 200 kHz 1.6 V/cm RMS): 13.5%
cytotoxic effect, Expected ([3]; AZD1152 25 nM + TTFields): 23.5%
cytotoxic effect, AZD1152 ([3]; AZD1152 25 nM alone): 46%
cytotoxic effect, Observed TTFields + AZD1152 ([3]; AZD1152 50 nM + TTFields 200 kHz 1.6 V/cm RMS): 8.5%
cytotoxic effect, Expected ([3]; AZD1152 50 nM + TTFields): 13.0%
cytotoxic effect, AZD1152 ([3]; AZD1152 50 nM alone): 25.5%
cytotoxic effect, Observed TTFields + AZD1152 ([3]; AZD1152 100 nM + TTFields 200 kHz 1.6 V/cm RMS): 4.0%
cytotoxic effect, Expected ([3]; AZD1152 100 nM + TTFields): 4.8%
cytotoxic effect, AZD1152 ([3]; AZD1152 100 nM alone): 9.5%
cytotoxic effect of combined treatment of TTFields and AZD1152 ([3]; TTFields 200 kHz 1.6 V/cm RMS 72 hours, 2-way ANOVA, p<0.001): significant enhancement of the cytotoxic effect
overall effect, Observed TTFields + AZD1152 ([4]; U-251, AZD1152 6.25 nM + TTFields 200 kHz 1.6 V/cm RMS): 8.0%
overall effect, Expected ([4]; U-251, AZD1152 6.25 nM + TTFields): 40.7%
overall effect, AZD1152 ([4]; U-251, AZD1152 6.25 nM alone): 74%
overall effect, Observed TTFields + AZD1152 ([4]; U-251, AZD1152 12.5 nM + TTFields 200 kHz 1.6 V/cm RMS): 0.7%
overall effect, Expected ([4]; U-251, AZD1152 12.5 nM + TTFields): 8.3%
overall effect, AZD1152 ([4]; U-251, AZD1152 12.5 nM alone): 15%
overall effect, Observed TTFields + AZD1152 ([4]; U-251, AZD1152 25 nM + TTFields 200 kHz 1.6 V/cm RMS): 0.2%
overall effect, Expected ([4]; U-251, AZD1152 25 nM + TTFields): 1.1%
overall effect, AZD1152 ([4]; U-251, AZD1152 25 nM alone): 2%
overall effect, Observed TTFields + AZD1152 ([4]; U-251, AZD1152 50 nM + TTFields 200 kHz 1.6 V/cm RMS): 0.2%
overall effect, Expected ([4]; U-251, AZD1152 50 nM + TTFields): 1.1%
overall effect, AZD1152 ([4]; U-251, AZD1152 50 nM alone): 2%
overall effect, Observed TTFields + AZD1152 ([4]; U-251, AZD1152 100 nM + TTFields 200 kHz 1.6 V/cm RMS): 0.2%
overall effect, Expected ([4]; U-251, AZD1152 100 nM + TTFields): 0.8%
overall effect, AZD1152 ([4]; U-251, AZD1152 100 nM alone): 1.5%
overall effect, Observed TTFields + AZD1152 ([5]; AZD1152 25 nM + TTFIELDS 200 kHz 1.6 V/cm RMS): 10.0%
overall effect, Expected ([5]; AZD1152 25 nM + TTFields): 15.0%
overall effect, AZD1152 ([5]; AZD1152 25 nM alone): 31%
overall effect, Observed TTFields + AZD1152 ([5]; AZD1152 50 nM + TTFIELDS 200 kHz 1.6 V/cm RMS): 6.0%
overall effect, Expected ([5]; AZD1152 50 nM + TTFields): 8.0%
overall effect, AZD1152 ([5]; AZD1152 50 nM alone): 16.5%
overall effect, Observed TTFields + AZD1152 ([5]; AZD1152 100 nM + TTFIELDS 200 kHz 1.6 V/cm RMS): 4.0%
overall effect, Expected ([5]; AZD1152 100 nM + TTFields): 2.2%
overall effect, AZD1152 ([5]; AZD1152 100 nM alone): 4.5%
maximum tolerated AZD1152 dose ([6]; administered as two 2-h infusions (110 mg/day, days 1, 2, 15 and 16)): 220 mg
maximum tolerated AZD1152 dose ([6]; as a 48-h continuous infusion): 150 mg
